A melting point compilation (Tetko et al.; mined from patent text by program, amines drawn as free bases though some values may be those of a salt)

| Structure (SMILES) | melting point |
| --- | --- |
| N#CSCC(Br)=C(Br)CSC#N | 180 °C |
| C=CCN(CC=C)C(=O)C(C#N)(CC)c1ccccc1 (stereo not given) | 33 to 35 °C |
| Clc1cccc2c1CCCC2c1c[nH]cn1 (stereo not given) | 165 to 169 °C |
| C=CCOc1nc(N)c2ccccc2n1 | 105 to 110 °C |
| C=CC1(COC(C)=O)OC(OC2C(COCc3ccccc3)OC(OC)C(OCc3ccccc3)C2OCc2ccccc2)C(OC(C)=O)C(OC)C1OC(C)=O (stereo not given) | 47 °C |
| CC1=NC(=Cc2ccc(C#N)cc2)C(=O)O1 | 192 to 193 °C |
| N#CCN1CCC(OC(c2ccccc2)c2ccccc2)CC1 | 78 to 80 °C |
| CC(=O)c1cc2c(c(C(=O)O)c1)NCCC2 | 229 °C |
| CCOc1csc2c(=O)c(S(C)=O)cn(C)c12 (stereo not given) | 210 to 214 °C |
| CC1=C(c2ccnc3ccccc23)SCC(=O)N1 | 174 to 176 °C |
| Nc1nc2c(ncn2OCCCP(=O)(O)O)c(=O)[nH]1 | > 300 °C |
| CCCCC1CCC(C2=C(Cl)C(=O)c3ccccc3C2=O)CC1 (stereo not given) | 107 to 110 °C |
| C=CC(=O)NC(C)(C)c1ccc(CC(=O)OCCC)cc1 | 71 to 72 °C |
| CCOCCc1cc(C)c(OCCN2C(C)C(Br)=C(C(N)=O)N2C)c(C)c1 (stereo not given) | 112 to 114 °C |
| CCN(CC)CCCNc1nc(Cl)nc(NCCCN(CC)CC)n1 | 119 °C |
| C=CCC(C(=O)NCC#CCN(C)C)(c1ccccc1)c1ccccc1 | 107 to 109 °C |
| CCOC(=O)c1c(C)nc(N2CCN(C)CC2)c([N+](=O)[O-])c1N | 73 to 75 °C |
| O=[N+]([O-])c1ccc(O)c(CSCC(O)CO)c1 (stereo not given) | 130 °C |
| CCOP(=O)(NCc1ccc2c(c1)-c1n[nH]c(=O)c3cccc(c13)O2)OCC | 222 to 224 °C |
| CN1c2ccc(C=C3SC(=O)NC3=O)cc2CCC1Cc1ccccc1 (stereo not given) | 214 to 217 °C |
| O=C(Nc1ccc(F)cc1)c1ccccc1SSc1ccccc1C(=O)Nc1ccc(F)cc1 | 242 to 244 °C |
| O=C(NC1CC1)c1ccc(N2CCNCC2)c(F)c1 | 141 to 143 °C |
| CC(NC(=O)Cc1cc(F)cc(F)c1)C(=O)NC1C(=O)NC(Cc2ccccc2)c2ccccc21 (stereo not given) | 106 to 107 °C |
| CN(CCOCCO)S(=O)(=O)c1ccc(NC=C2C(=O)Nc3ccc4ncsc4c32)cc1 | 165 °C |
| COC1=NS(=O)N=C1NCCCCc1ncc(Br)cc1N (stereo not given) | 118 to 120 °C |
| O=C(Nc1cccnn1)N1CCN(c2nc(-c3cccc(F)c3)cs2)CC1 | 176 to 177 °C |

| Structure (SMILES) | melting point |
| --- | --- |
| Cc1cnc2cccc(Oc3cc(-c4ccc(C(F)(F)F)cc4)ncn3)c2n1 | 139 to 141 °C |
| O=C1N(C(c2ccccc2)c2ccccc2)c2ccccc2C12COc1cc3c(cc12)OCCO3 (stereo not given) | 183 to 185 °C |
| CS(=O)(=O)c1cc(C(F)(F)F)ns1 | 93 to 94 °C |
| CC(c1ccccc1)N1CC(CF)(C(=O)N(Cc2ccccc2)Cc2ccccc2)CC1=O (stereo not given) | 113 to 115 °C |
| O=C(O)Cc1ccc2c(c1)CCCOO2 | 99 to 101 °C |
| CN1Cc2cncn2-c2cccc(Cl)c2C1=O | 200 to 201 °C |
| O=C1NC(=Cc2c(Cl)cccc2Cl)C(=O)C1=NO | 232 °C |
| CCC1(C2OC(C3OC(O)(CO)C(C)CC3C)CC2C)CCC(C2(C)CCC3(CC(O)C(C)C(C(C)C(OC)C(C)C(=O)O)O3)O2)O1 (stereo not given) | 78 to 80 °C |
| Clc1cc(N2CCCC2)nc(N2CCNCC2)n1 | 77 to 92 °C |
| O=c1ccc2c(-n3cnc(-c4ccccc4)c3)nccc2[nH]1 | 263 to 265 °C |
| CN1C(=N)N(c2ccccc2)CC1=O | 169 to 170 °C |
| N#CC(c1ccccn1)C1CCCCC1O (stereo not given) | 110 to 112 °C |
| C=Cc1cc(CNC(=O)NCc2ccc(C(C)(C)C)cc2)cc(C(F)(F)F)c1NS(C)(=O)=O | 134 to 136 °C |
| Cn1cccc1CCNCC(O)COc1cccc2[nH]ccc12 (stereo not given) | 105 to 106 °C |
| CCCCCCCCCCCCCCN(CCCCCCCCCCCCCC)S(=O)(=O)c1ccc(C)cc1 | 54 °C |
| CCC1(CCCCCBr)C(=O)Nc2ccc(F)cc21 (stereo not given) | 82 to 83 °C |
| Cc1cc(-c2nnc3c4ccccc4c(OCc4nncn4C)nn23)no1 | 261 to 263 °C |
| CC(C)NS(=O)(=O)c1cc(-c2ncnc(C(F)F)c2Cl)c(F)cc1Cl | 172 to 175 °C |
| CCC(=O)CSc1cc(C(C)(C)C)c(O)c(C(C)(C)C)c1 | 55 to 57 °C |
| O=c1c(Br)cn(-c2cccc(C(F)(F)F)c2)nc1-c1ccnn1-c1ccccc1 | 145 to 146 °C |
| Cn1c2c(c(=O)[nH]c1=O)CCC2 | 250 to 251 °C |
| N#CCCNC(=O)C1=CC(CF)(CF)Oc2cc(Cl)c(Cl)cc21 | 135 to 136 °C |
| CCOC(=O)C1=C(C)Nc2nc(N3CCOCC3)nc(N3CCOCC3)c2C1c1cccs1 (stereo not given) | 205 °C |
| CCOC(=O)C(CCC(C)(C)c1cc(O)c(C(C)(C)CCC(C(=O)OCC)C(=O)OCC)cc1O)C(=O)OCC | 157 to 160 °C |
| CCCCCCCCCCCCCCCCCCCC(=O)Nc1ccn(C2OC(CO)C(O)C2O)c(=O)n1 (stereo not given) | 138 to 142 °C |

The next lines start with the values.

| melting point | Structure (SMILES) |
| --- | --- |
| 150 to 154 °C | COc1ccccc1NC(=O)Nc1nc(Nc2ccccc2-c2ccccc2)nc(N2CCCCC2C(=O)O)n1 (stereo not given) |
| 222 °C | CC(C)(O)c1cnn2c(-c3ccc(F)c(-c4ccc(F)cn4)c3)cnc2n1 |
| 125 to 127 °C | CCCN(CCC)C(=O)Cn1c(-c2cccc(Br)c2)nc2cccnc21 |
| 113 to 155 °C | COC(=O)C1(C(=O)OC)Cc2cc(Br)ccc2N1 |
| 252 °C | COc1cc2nc(COc3ccc(CC4SC(=O)NC4=O)cc3)n(C)c(=O)c2cc1OC (stereo not given) |
| 101 to 103 °C | CC1C(=CO)C(=O)c2c(O)cc(OCCCCc3ccccc3)cc2N1C=O (stereo not given) |
| 103 to 106 °C | COc1ccc(C=O)c(-c2ccc(O[Si](C)(C)C(C)(C)C)cc2)c1O |
| 48 to 52 °C | Fc1cc(OCc2ccccc2)cnc1Cl |
| 65 °C | Nc1ccc(C(=O)OCCOC(=O)CC[C@@H](C(=O)O)n2c3ccccc3c3ccccc32)cc1 |
| 209 to 210 °C | O=C1CCCC(c2ccc(Cl)cc2)N1c1ccc(O)cc1 (stereo not given) |
| 76 to 77 °C | COc1c(C(C)=O)cnc2c(N)cccc12 |
| 187 to 188 °C | COc1cc(OC)c2c(c1)N(Cc1ccccn1)C(=O)C21COc2cc3c(cc21)OCCO3 (stereo not given) |
| 143 to 157 °C | CC(C)c1cccc(-c2nscc2C(=O)O)c1 |
| 254 to 256 °C | COc1ccccc1C1(Cl)C(=O)Nc2cc(C)c(Cl)cc21 (stereo not given) |
| 122 °C | COc1ccc(-c2nc(N)sc2CCC2CCCCC2)c(OC)c1 |
| > 310 °C | N#Cc1ccc(-c2nc3c(C(N)=O)cccc3[nH]2)cc1 |
| 198 to 199 °C | CCOC(=O)c1ccc(-c2c(Cl)c(CN3C(=O)CCC3=O)nc3sc4c(c23)CCN(C(=O)OCc2ccccc2)C4)cc1 |
| 106 to 110 °C | CCCCc1nc(COC)c(C(=O)OC)n1Cc1ccc(-c2ccccc2C(=O)O)cc1 |
| 268 to 269 °C | CCn1cc(C(=O)O)c(=O)c2ccc(-c3cccnc3)cc21 |
| 167 °C | COc1ccc(C(=NOC(C)=O)c2ccc(Cl)cc2)c(O)c1 |
| 242 to 245 °C | CC1(C)NC(=O)N(CC(CS(=O)(=O)c2ccc(-c3ccc(Cl)cc3)cc2)C(=O)O)C1=O (stereo not given) |
| 156 to 158 °C | Cc1ccc(-c2cc3cc(-c4ccccc4)ccc3o2)cc1 |
| 103 °C | CSc1ccc(-c2nn(Cc3ccccc3)c(=S)cc2-c2ccc(Cl)cc2)cc1 |
| 274 to 275 °C | C=Cc1cc(O)cc2nc(-c3ccc(O)cc3F)oc12 |
| 118 to 120 °C | CCOC(=O)C1=C(COCCn2c(C)nc3ccccc32)NC2=C(C(=O)C(C)(C)CC2)C1c1ccccc1Cl (stereo not given) |

| melting point | Structure (SMILES) |
| --- | --- |
| 185 to 188 °C | CC(=O)SCC(Cc1ccccc1)C(=O)Nc1ccc(O)c(C(=O)O)c1 (stereo not given) |
| 155 to 156 °C | CCOC(=O)C(c1c(F)cc(C#N)cc1F)c1cc(C)c(C(=O)c2ccc(Cl)cc2)n1C (stereo not given) |
| 259 to 261 °C | O=C(O)c1ccc(C(=O)NS(=O)(=O)c2ccccc2)cc1 |
| 121 to 123 °C | CN1CCN(C(=O)[C@H](CC(N)=O)NC(=O)CCc2ccc(OCc3ccccc3)cc2OCc2ccccc2)CC1 |
| 149 °C | COc1cc([N+](=O)[O-])c(NCCCO)cc1O |
| 52.5 to 54 °C | CC(C)C(=Nc1ccc([N+](=O)[O-])c(C(F)(F)F)c1)N(C)c1ccccc1 |
| 143 to 145 °C | COc1ccc(-c2ccccn2)c(NC(=O)CC(C)NC(=O)OC(C)(C)C)c1 (stereo not given) |
| 121 to 127 °C | O=C(N[C@H]1CC(=O)N(c2cc(Cc3n[nH]c(=O)c4ccccc34)ccc2F)C1=O)OCc1ccccc1 |
| 237 to 238 °C | CCOC(=O)c1[nH]c(-c2ccc(Cl)cc2)nc1C |
| 75 to 77 °C | CC(C)Oc1ccc(CCCCOc2cc(CCC(=O)O)n(-c3ccccc3)n2)c(Oc2ncc(C(F)(F)F)cc2Cl)c1 |
| 120 to 123 °C | COc1ccc(N)c(C2Cc3ccccc3N2)c1 (stereo not given) |
| 97 to 98 °C | Cc1nc(CCOc2ccc([N+](=O)[O-])cc2)c(C)o1 |
| 174 to 178 °C | O=C(NCc1ccc(Cl)cc1)c1cn(CCO)c2sc(CCCO)cc2c1=O |
| 42 °C | CCOC(=O)c1ccc(C=C(C)C)c(OC)c1 |
| 138 to 141 °C | CCc1nc2cc(C(F)(F)F)c(Cl)cc2n1-c1ccc(C[C@H](C)NC(=O)NS(=O)(=O)c2ccc(C)cc2)cc1 |
| 110 to 112 °C | C#CC(CC)(CC)NC(=O)C(CCN1CCN(c2ccccc2OC)CC1)c1ccccc1 (stereo not given) |
| 82 to 84 °C | COc1ccc(CNc2ccc(Cl)cc2C(=O)C(F)(F)F)cc1 |
| 111 to 112 °C | CC(=O)c1c(-c2ccccc2)sc(-c2ccncc2)c1C |
| 147 to 149 °C | CCc1nn2c(-c3ccc(Cl)cc3Cl)cccc2c1[N+](=O)[O-] |
| 174 to 176 °C | CCN(CC)CCNC(=O)c1ccc(S(N)(=O)=O)cc1 |
| 203 to 205 °C | CN(C)C=CC(=O)c1ccc(C(=O)N2Cc3cccn3Cc3ccccc32)cc1 |
| 290 to 291 °C | CC(C)(C)c1ccc(S(=O)(=O)NCc2ccc(C(=O)O)cc2)cc1 |
| 207 to 209 °C | C=Cc1ccc(CSc2ccccc2C(=O)O)cc1 |
| 131 to 133 °C | O=C(O)c1cc(OCCCCCCOc2ccc(-c3ccccc3)cc2)ccc1OCc1ccccc1 |
